Measurements taken from PMC9556364, “The effect of rifampin on the pharmacokinetics of famitinib in healthy subjects” (Cancer Chemotherapy and Pharmacology, 2022).
“And” between values parts separate entries of the source, which are not always exact repeats. Equal values may be shown once. Each block holds one compound with its values, some of them ahead of it.

Tests used:
[1] = cited from earlier work; for Decrease of AUC when administered simultaneously with rifampin / Decrease of Cmax when administered simultaneously with rifampin: ref 21 (imitinib), 22 (gefitinib), 23 (erlotinib), 24 (afatinib)
P-gp = target: T1, P-gp (Homo sapiens, UniProt P08183); test: In vitro P-gp interaction study in Caco-2 cells; format: in vitro ADME
T1 construct: endogenous in cells; host or cells: Caco-2
Description: Except as a strong CYP3A inducer, rifampin is also recognized as a substrate and inducer of permeability glycoprotein (P-gp), an important ATP-binding cassette transporter, upon multiple dosing. […] Therefore, the interaction between famitinib and P-gp as well as OATP needs to be considered, to evaluate whether the changes of famitinib exposure caused by the strong CYP3A inducer are affected.

[2] = cited from earlier work
CYP3A4 = test system: CYP3A4; parameters: method as in PMID 23126373; conditions: recombinant human isozymes, microsomal chemical inhibition; cited from earlier work
[3] = Safety and tolerability (treatment emergent adverse events, CTCAE v5.0) in the DDI study; conditions: for Subjects with treatment-related TEAEs: famitinib alone Days 1–9 (1/21), rifampin alone Days 10–15 (3/21), combination Days 16–23 (4/20)
Description: Safety and tolerability were evaluated by monitoring vital signs, physical examination, laboratory tests, electrocardiogram (ECG) and adverse events (AEs). Vital signs, including body temperature, blood pressure (BP) and heart rate, were measured and ECG were performed during baseline period, before drug administration and at 4, 24, 48, 192 h after famitinib administration. Clinical laboratory tests were conducted at screening, day 9, 15, and prior to discharge. AEs, including all subjective symptoms reported by subjects and objective signs observed by clinical investigators, were collected after dosing throughout the study.
Safety parameters of the safety analysis sets were summarized using descriptive statistics. AEs were graded according to Common Terminology Criteria for Adverse Events (CTCAE, version 5.0) and coded using Medical Dictionary for Regulatory Activities (MedDRA, version 19.0) System Organ Class (SOC) and Preferred Terms (PT).

[4] = Drug-drug interaction study: plasma pharmacokinetics of single oral famitinib 25 mg alone and with steady-state rifampin 600 mg once daily (LC-MS/MS, noncompartmental analysis); conditions: for CL/F / AUC(0-t) / AUC(0-inf) / Cmax / k el: geometric mean (geometric CV, %); for AUC(0-t): AUC0–t; for AUC(0-inf): AUC0–∞; for Tmax: median (min, max); for k el: λz
Description: The DDI study was an open-label, self-contrast study comprising the following two periods: period 1 (Days 1–9), administration of a single oral dose of famitinib 25 mg alone in the morning of study day 1; period 2 (Days 10–23), repeated administration of oral rifampin 600 mg once daily for 14 days in the morning of days 10–23, and co-administration of a single dose of famitinib 25 mg on Day 16. […] In the two periods, oral doses of famitinib were administered after an overnight fast (at least 10 h) with 240 mL room-temperature water. Subjects were forbidden to drink water within 1 h before and after taking famitinib, and the lunch and dinner were provided at 4 h and 8 h,, respectively, post-drug administration (Day 1, 16). In the second period, subjects received rifampin in the fasting state with 240 mL water and had regular meals 1 h after the dose. Cigarettes, caffeinated drinks and alcoholic products were prohibited during the whole trial period, and when the subjects stayed in the study center (Days 1–4, 10–23), the only food permitted was prepared and provided at predetermined times by the researchers.
Samples were centrifuged within 1 h at 1500xg for 10 min at 4℃ to separate the plasma, which was divided into two aliquots (drug monitoring at least 800ul and backup) and stored at – 80 °Cuntil analysis.
Plasma concentrations of famitinib were analysed using a validated liquid chromatography-tandem mass spectrometry (LC–MS/MS) method [9, 15] at Frontage Laboratories Co., Ltd (Shanghai, China). The calibration curve for famitinib covered ranges of 0.050-100 ng/ml. The low limit of qualification (LLOQ) was 0.050 ng/ml.
Pharmacokinetic (PK) parameters for famitinib in plasma were estimated by noncompartmental analysis using Phoenix WinNonlin (version 7.0, Pharsight Corporation, St Louis, MO, USA). The primary endpoints were the maximum plasma famitinib concentration (Cmax), the area under the plasma concentration–time curve from time 0 to the last measured time point (AUC0–t), and the area under the plasma concentration–time curve from time 0 to infinity (AUC0–∞). The secondary PK parameters included time to Cmax (Tmax) and the elimination half-life (T1/2), the terminal exponential rate constant (λz), the apparent total body clearance (CL/F). Cmax and Tmax were observed directly from the original concentration–time data.
All subjects who received the study drug and for whom at least one PK parameter data was available were included in the PK analysis sets. The safety analysis sets included subjects who received at least one dose of famitinib or rifampin. Statistical analysis was performed using SAS 9.4 (SAS Inc., Cary, NC, USA). […] The measurement data were expressed as mean ± standard deviation (SD), and categorical variables were described by the percentage.

[5] = famitinib 25 mg with rifampin 600 mg vs alone
[6] = famitinib + rifampin period, individual subjects, LLOQ 0.050
[7] = famitinib alone period, individual subjects
[8] = male, human, plasma, po, 25 mg, famitinib 25 mg + rifampin, N = 20
[9] = male, human, plasma, po, 25 mg, famitinib 25 mg alone, N = 21
[10] = healthy volunteers, vs sunitinib alone

T1 sequence (P08183 whole entry): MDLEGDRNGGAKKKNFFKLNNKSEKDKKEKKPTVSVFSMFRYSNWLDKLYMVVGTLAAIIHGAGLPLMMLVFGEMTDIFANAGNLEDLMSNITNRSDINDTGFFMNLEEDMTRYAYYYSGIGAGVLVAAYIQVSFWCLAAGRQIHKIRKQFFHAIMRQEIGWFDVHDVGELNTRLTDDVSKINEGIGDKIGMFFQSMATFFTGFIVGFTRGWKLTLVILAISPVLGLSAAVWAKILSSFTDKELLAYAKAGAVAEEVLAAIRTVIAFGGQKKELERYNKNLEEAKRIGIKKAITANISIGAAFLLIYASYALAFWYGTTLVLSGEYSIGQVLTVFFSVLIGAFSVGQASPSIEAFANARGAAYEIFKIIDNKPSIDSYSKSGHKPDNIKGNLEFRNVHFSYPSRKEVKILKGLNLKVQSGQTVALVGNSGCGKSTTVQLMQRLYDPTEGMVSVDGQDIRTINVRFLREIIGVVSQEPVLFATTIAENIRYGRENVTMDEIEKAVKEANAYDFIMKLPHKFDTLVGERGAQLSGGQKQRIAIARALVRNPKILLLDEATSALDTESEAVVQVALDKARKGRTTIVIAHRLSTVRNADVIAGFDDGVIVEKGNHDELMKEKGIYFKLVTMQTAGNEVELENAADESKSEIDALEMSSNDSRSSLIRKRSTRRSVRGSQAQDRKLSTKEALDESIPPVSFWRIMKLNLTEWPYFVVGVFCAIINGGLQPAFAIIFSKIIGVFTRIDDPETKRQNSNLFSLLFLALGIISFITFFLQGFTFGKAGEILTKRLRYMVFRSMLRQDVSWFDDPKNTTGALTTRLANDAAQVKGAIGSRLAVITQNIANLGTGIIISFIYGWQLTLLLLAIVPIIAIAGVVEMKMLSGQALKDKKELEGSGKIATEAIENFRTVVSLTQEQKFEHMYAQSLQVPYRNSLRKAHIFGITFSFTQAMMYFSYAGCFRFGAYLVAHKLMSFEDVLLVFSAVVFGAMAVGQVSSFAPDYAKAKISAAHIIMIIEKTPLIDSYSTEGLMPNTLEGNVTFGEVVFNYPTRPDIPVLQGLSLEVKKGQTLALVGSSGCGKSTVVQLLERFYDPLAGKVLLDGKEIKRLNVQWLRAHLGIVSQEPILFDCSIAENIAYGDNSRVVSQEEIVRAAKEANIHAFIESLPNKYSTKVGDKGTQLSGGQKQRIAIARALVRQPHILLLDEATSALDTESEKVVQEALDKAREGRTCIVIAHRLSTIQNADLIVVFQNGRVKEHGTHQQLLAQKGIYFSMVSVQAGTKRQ

SMILES: CN(C)C/C=C/C(=O)Nc1cc2c(Nc3ccc(F)c(Cl)c3)ncnc2cc1O[C@H]1CCOC1 [afatinib]
Decrease of AUC when administered simultaneously with rifampin [1]: 34% | Decrease of Cmax when administered simultaneously with rifampin [1]: 22%

SMILES: C#Cc1cccc(Nc2ncnc3cc(OCCOC)c(OCCOC)cc23)c1 [erlotinib]
Decrease of AUC when administered simultaneously with rifampin [1]: 69% | Decrease of Cmax when administered simultaneously with rifampin [1]: 39%

CL/F ([4]; famitinib 25 mg + rifampin, N = 20): 61.4 (16.5) L/h | CL/F ([4]; famitinib 25 mg alone, N = 21): 18.9 (18.0) L/h | Decrease of geometric mean AUC0–t in the presence of rifampin [4, 5]: 69% | Decrease of geometric mean AUC0–∞ in the presence of rifampin [4, 5]: 69% | Decrease of geometric mean Cmax in the presence of rifampin [4, 5]: 48% | Plasma concentration of famitinib, 144h [4, 6]: BLQ<0.050 ng / mL | Plasma concentration of famitinib, 192h [4, 6]: BLQ<0.050 ng / mL | Plasma concentration of famitinib, before dosing [4, 6]: BLQ<0.050 ng / mL | Plasma concentration of famitinib, before dosing ([4]; famitinib alone period, individual subjects, LLOQ 0.050): BLQ<0.050 ng / mL | concentration at 6 h ([4]; human, plasma, oral, 25 mg, Plasma concentration of famitinib, famitinib alone period, individual subjects): 44.3 ng/mL | concentration at 8 h ([4]; human, plasma, oral, 25 mg, Plasma concentration of famitinib, 8h, famitinib alone period, individual subjects): 42.1 ng/mL | concentration at 12 h ([4]; human, plasma, oral, 25 mg, Plasma concentration of famitinib, 12h, famitinib alone period, individual subjects): 22.5 ng/mL | concentration at 24 h ([4]; human, plasma, oral, 25 mg, Plasma concentration of famitinib, 24h, famitinib alone period, individual subjects): 14 ng/mL | concentration at 48 h ([4]; human, plasma, oral, 25 mg, Plasma concentration of famitinib, 48h, famitinib alone period, individual subjects): 7.26 ng/mL | concentration at 6 h ([4]; human, plasma, oral, Plasma concentration of famitinib, famitinib + rifampin period, individual subjects): 22 ng/mL | concentration at 144 h ([4]; human, plasma, oral, Plasma concentration of famitinib, 144h, famitinib + rifampin period, individual subjects, LLOQ 0.050): 0.063 ng/mL | half-life ([4]; male, human, plasma, po, 25 mg): 33.9 h | AUC(0-t) [4, 8]: 405 ng·h/mL | AUC(0-t) [4, 9]: 1300 ng·h/mL | AUC(0-inf) [4, 8]: 407 ng·h/mL | AUC(0-inf) [4, 9]: 1320 ng·h/mL | Cmax ([4]; male, human, plasma, po, 25 mg, famitinib 25 mg + steady-state rifampin 600 mg once daily, N = 20): 20.1 ng/mL | Cmax ([4]; male, human, plasma, po, 25 mg, famitinib 25 mg single oral dose alone, N = 21): 38.7 ng/mL | Tmax [4, 8]: 5.5 h | Tmax [4, 9]: 6 h | k el [4, 8]: 1.08e-05 s⁻¹ | k el [4, 9]: 5.83e-06 s⁻¹
SMILES: CCN(CC)CCN1CCc2[nH]c(/C=C3\C(=O)Nc4ccc(F)cc43)c(C)c2C1=O [famitinib, Famitinib malate]
P-gp substrate, inducer or inhibitor (P-gp): neither a substrate, an inducer or inhibitor | Mean time to maximum concentration (Tmax) ([2]; 25 mg famitinib, healthy subjects): 5.9 ± 3.8 h | Time of peak concentration (Cmax) after a single oral administration ([2]; 4–27 mg famitinib, cancer patients): 3.3 to 5.3 h | Effect of food on the pharmacokinetics [2]: minimal effect | Accumulation ratio (Day28/Day1) of AUC0–24 h ([2]; continuous dosing): 2.53 | Accumulation ratio (Day28/Day1) of Cmax ([2]; continuous dosing): 2.15 | Elimination via biliary-fecal route ([2]; human): approximately 56.3 % of the administered dose | Pathway most important to metabolic clearance (CYP3A4): CYP3A4-mediated N-desethylation is most important | Subjects with treatment-related TEAEs [3]: 4.8% | Tolerability ([3]; single dose famitinib 25 mg, alone and in combination with multiple doses of rifampin): well tolerated | Subjects reporting treatment emergent adverse events (TEAEs) ([3]; whole study, 8/21 subjects, all grade 1–2): 38.1% | Plasma concentration of famitinib, 1h [4, 7]: 12.172 ng/mL and 10.070 ng/mL and 23.342 ng/mL and 11.725 ng/mL and 7.749 ng/mL and 13.952 ng/mL and 8.453 ng/mL and 16.495 ng/mL and 11.559 ng/mL and 9.713 ng/mL and 14.845 ng/mL and 9.794 ng/mL and 13.641 ng/mL and 7.456 ng/mL and 5.075 ng/mL | Plasma concentration of famitinib, 2h [4, 7]: 19.290 ng/mL and 11.263 ng/mL and 27.171 ng/mL and 17.301 ng/mL and 11.179 ng/mL and 19.862 ng/mL and 16.456 ng/mL and 17.403 ng/mL and 19.212 ng/mL and 16.738 ng/mL and 25.161 ng/mL and 11.223 ng/mL and 13.668 ng/mL and 15.742 ng/mL and 7.198 ng/mL | Plasma concentration of famitinib, 3h [4, 7]: 24.870 ng/mL and 24.032 ng/mL and 35.652 ng/mL and 17.196 ng/mL and 13.891 ng/mL and 21.638 ng/mL and 20.909 ng/mL and 26.523 ng/mL and 20.328 ng/mL and 19.378 ng/mL and 25.658 ng/mL and 13.587 ng/mL and 23.069 ng/mL and 22.375 ng/mL and 13.449 ng/mL | Plasma concentration of famitinib, 4h [4, 7]: 28.028 ng/mL and 28.292 ng/mL and 40.156 ng/mL and 20.043 ng/mL and 16.081 ng/mL and 19.854 ng/mL and 21.159 ng/mL and 24.187 ng/mL and 24.994 ng/mL and 22.750 ng/mL and 36.134 ng/mL and 11.368 ng/mL and 18.316 ng/mL and 23.577 ng/mL and 15.599 ng/mL | Plasma concentration of famitinib, 5h [4, 7]: 34.268 ng/mL and 39.992 ng/mL and 39.262 ng/mL and 34.731 ng/mL and 23.153 ng/mL and 38.641 ng/mL and 37.246 ng/mL and 34.840 ng/mL and 39.863 ng/mL and 36.023 ng/mL and 38.105 ng/mL and 23.878 ng/mL and 27.444 ng/mL and 47.892 ng/mL | Plasma concentration of famitinib, 6h [4, 7]: 43.837 ng/mL and 41.218 ng/mL and 38.122 ng/mL and 30.476 ng/mL and 37.003 ng/mL and 33.261 ng/mL and 32.099 ng/mL and 44.461 ng/mL and 40.451 ng/mL and 44.411 ng/mL and 30.717 ng/mL and 31.790 ng/mL and 38.642 ng/mL | Plasma concentration of famitinib, 8h [4, 7]: 36.756 ng/mL and 37.274 ng/mL and 37.931 ng/mL and 31.453 ng/mL and 34.655 ng/mL and 28.227 ng/mL and 26.193 ng/mL and 38.443 ng/mL and 33.433 ng/mL and 40.722 ng/mL and 30.892 ng/mL and 27.531 ng/mL and 41.552 ng/mL

SMILES: COc1cc2ncnc(Nc3ccc(F)c(Cl)c3)c2cc1OCCCN1CCOCC1 [gefitinib]
Decrease of AUC when administered simultaneously with rifampin [1]: 83% | Decrease of Cmax when administered simultaneously with rifampin [1]: 65%

SMILES: Cc1ccc(NC(=O)c2ccc(CN3CCN(C)CC3)cc2)cc1Nc1nccc(-c2cccnc2)n1 [imitinib]
Decrease of AUC when administered simultaneously with rifampin [1]: 74% | Decrease of Cmax when administered simultaneously with rifampin [1]: 54%

SMILES: CO[C@H]1/C=C/O[C@@]2(C)Oc3c(C)c(O)c4c(O)c(c(/C=N/N5CCN(C)CC5)c(O)c4c3C2=O)NC(=O)/C(C)=C\C=C\[C@H](C)[C@H](O)[C@@H](C)[C@@H](O)[C@@H](C)[C@H](OC(C)=O)[C@@H]1C [rifampin, Rifampicin]
Subjects with treatment-related TEAEs [3]: 14.3%

SMILES: CCN(CC)CCNC(=O)c1c(C)[nH]c(/C=C2\C(=O)Nc3ccc(F)cc32)c1C [sunitinib]
Fold reduction in AUC on coadministration with rifampin [1, 10]: 4.8 fold | Fold reduction in Cmax on coadministration with rifampin [1, 10]: 2.3 fold
